Columns and labels:
[1] = Wilhelmy Plate
[2] = wn = mass fraction of the nth substance listed; conditions: Wilhelmy Plate

CC(O)CN(C)C (stereo not given) [1-(dimethylamino)-2-propanol]
[1]
Conditions	surface tension liquid-gas [mN/m]
303.2 K	24
308.2 K	23.2
313.2 K	22.6
318.2 K	22
323.2 K	21.3

CC(O)CN(C)C (stereo not given) [1-(dimethylamino)-2-propanol] + O
surface tension liquid-gas [mN/m], [2]
Conditions	303.2 K	308.2 K	313.2 K	318.2 K	323.2 K
w1 = 0.3	36.2	35.4	34.6	33.9	33.2
w1 = 0.4	33.5	32.7	32.1	31.5	30.9
w1 = 0.5	31.5	31	30.2	29.6	29.1
w1 = 1	24	23.2	22.6	22	21.3

CCCCn1cc[n+](C)c1.NCCCC[C@H](N)C(=O)[O-] [1-butyl-3-methylimidazolium L-lysinate]
[1]
Conditions	surface tension liquid-gas [mN/m]
303.2 K	45.9
308.2 K	45.5
313.2 K	45.1
318.2 K	44.7
323.2 K	44.2

CCCCn1cc[n+](C)c1.NCCCC[C@H](N)C(=O)[O-] [1-butyl-3-methylimidazolium L-lysinate] + O
surface tension liquid-gas [mN/m], [2]
Conditions	w1 = 0.025	w1 = 0.05	w1 = 0.075	w1 = 0.1	w1 = 0.15	w1 = 0.2	w1 = 0.4	w1 = 0.6	w1 = 0.8	w1 = 1
303.2 K	62.5	59.9	57.3	55.1	52.5	50.1	48.4	47.1	46.4	45.9
308.2 K	59.8	57.7	55.2	53.3	50.9	49.1	47.6	46.4	45.9	45.5
313.2 K	57.3	55.5	53.2	51.5	49.3	48.1	46.8	45.7	45.5	45.1
318.2 K	54.3	52.5	50.8	49.4	47.7	46.8	45.9	45.3	45	44.7
323.2 K	51.1	49.6	48.5	47.3	46.2	45.5	45.1	44.9	44.6	44.2

CCCCn1cc[n+](C)c1.NCC(=O)[O-] [1-butyl-3-methylimidazolium glycinate]
[1]
Conditions	surface tension liquid-gas [mN/m]
303.2 K	42.9
308.2 K	42.6
313.2 K	42.4
318.2 K	42.1
323.2 K	41.7

Reference: the NIST ThermoML archive (doi:10.1021/acs.jced.9b00511)
